In patent US20260062388A1, “POLYMORPHIC FORM OF NEPICASTAT ACID ADDITION SALT, PREPARATION METHOD THEREFOR AND USE THEREOF” (Jiangsu Yahong Meditech Co., Ltd., priority 2022, published 2026):

Key:
[1] = Approximate solubility test on crystal forms of hydrochloride salt of nepicastat at room temperature; assay type: physicochemical; settings: thermodynamic from solid, room temperature
[2] = Dynamic vapor sorption (DVS) hygroscopicity; assay type: physicochemical
Method: DVS curves are acquired on DVS Intrinsic from SMS (Surface Measurement Systems). • Testing temperature: 25° C. • Sample amount: 10-20 mg • dm/dt: 0.002%/min; • RH range: 0% RH-95% RH-0% RH • RH gradient: 10%

[3] = Long-term stability test (25° C./60% RH) of crystal form I; assay type: physicochemical; settings: for Moisture (KF, w/w %) / Related substances (w/w %): Total impurities / Chiral purity (%) / Content (HPLC, w/w %): 25° C. ± 2° C./60% RH ± 5% RH; for Chiral purity (%): S-enantiomer; for Content (HPLC, w/w %): deducting residual solvent(s) and moisture
[4] = Accelerated stability test (40° C./75% RH) of crystal form I; assay type: physicochemical; settings: for Moisture (KF, w/w %) / Related substances (w/w %): Total impurities / Chiral purity (%) / Content (HPLC, w/w %): 40° C. ± 2° C./75% RH ± 5% RH; for Chiral purity (%): S-enantiomer; for Content (HPLC, w/w %): deducting residual solvent(s) and moisture
[5] = Stability studies under relatively harsh conditions (40° C., 40° C./75% RH, 60° C., 60° C./75% RH) on crystal forms I and II; assay type: physicochemical; settings: for crystal form stability (XRPD pattern): 15 days
[6] = Bioavailability test, intravenous and oral administration to mice; settings: mouse, in vivo, IV 15 mg/kg, PO 30 mg/kg
Source text: The crystal forms I and II of hydrochloride salt of nepicastat and the crystal forms of other acid addition salts of nepicastat in Table 31 were taken, and administered intravenously and orally to mice respectively, wherein: • the formulation for intravenous (IV) administration was: 5% (v/v) DMSO+10% (v/v) Solutol HS 15+85% (v/v) physiological saline; • the formulation for oral (PO) administration was: 0.5% (v/v) MC4000 aqueous solution (MC: methylcellulose).
The specific administration was as follows: • Experiment: three mice were subjected to the test in parallel for each formulation; • Body weight: about 30 g • Administration route: IV; PO • Dose administered: IV-15 mg/kg; PO-30 mg/kg; • Before administration: fasting for 12 hours before administration, and allowing mice to drink water; • After administration: allowing mice to drink water, and feeding within 2 hours after administration; • Blood collecting site: the vein at a hind leg • Blood collecting times: IV—0.083, 0.25, 0.5, 1, 2, 4, 6, 8, 24 h; • PO—0.25, 0.5, 1, 2, 4, 6, 8, 24 h.
Due to very close solubilities of the crystal forms I and II of hydrochloride salt of nepicastat in water, it was found in the experiment that both of them obtained clear solutions upon preparing the administration samples.

For `Cl.NCc1c[nH]c(=S)n1[C@H]1CCc2c(F)cc(F)cc2C1.O` [crystal form I of hydrochloride salt, (S)-5-aminomethyl-1-(5,7-difluoro-1,2,3,4-tetrahydronaphthalen-2-yl)-1,3-dihydroimidazole-2-thione hydrochloride monohydrate], the solubility ([1]; aqueous with cosolvent or surfactant or cyclodextrin, solvent 15% Isopropanol) was 20000 to 27000 µg/mL, the solubility ([1]; aqueous with cosolvent or surfactant or cyclodextrin, solvent 30% Methanol) was 21000 to 42000 µg/mL and the solubility ([1]; aqueous with cosolvent or surfactant or cyclodextrin, solvent 50% Acetonitrile) was 80000 to 100000 µg/mL. It also gave a solubility ([1]; aqueous with cosolvent or surfactant or cyclodextrin, solvent 50% Ethanol) of 20000 to 27000 µg/mL, a solubility ([1]; aqueous with cosolvent or surfactant or cyclodextrin, solvent 50% Isopropanol) of 40000 to 80000 µg/mL and a solubility ([1]; aqueous with cosolvent or surfactant or cyclodextrin, solvent 50% Tetrahydrofuran) of 100000 to 130000 µg/mL. For the same compound, the solubility ([1]; organic solvent or mixture, solvent 1,4-Dioxane) was less than 1000 µg/mL, the solubility ([1]; organic solvent or mixture, solvent 2-Butanone) was less than 1000 µg/mL and the solubility ([1]; organic solvent or mixture, solvent 2-Methyltetrahydrofuran) was less than 1000 µg/mL. The solubility ([1]; organic solvent or mixture, solvent Acetone) was less than 1000 µg/mL, the solubility ([1]; organic solvent or mixture, solvent Acetonitrile) was 40 µg/mL and the solubility ([1]; organic solvent or mixture, solvent Chloroform) was 380 µg/mL. It also gave a solubility ([1]; organic solvent or mixture, solvent Dichloromethane) of less than 10 µg/mL, a solubility ([1]; organic solvent or mixture, solvent Ethanol) of 6500 µg/mL and a solubility ([1]; organic solvent or mixture, solvent Ethyl acetate) of 10 µg/mL. It also gave a solubility ([1]; organic solvent or mixture, solvent Isopropanol) of 6000 µg/mL, a solubility ([1]; organic solvent or mixture, solvent Methanol) of 33000 µg/mL and a solubility ([1]; organic solvent or mixture, solvent Methyl tert-butyl ether) of less than 1000 µg/mL. The solubility ([1]; organic solvent or mixture, solvent N-hexane) was less than 10 µg/mL, the solubility ([1]; organic solvent or mixture, solvent Propanol) was 11700 µg/mL and the solubility ([1]; organic solvent or mixture, solvent Propylene carbonate) was 140 µg/mL. For the same compound, the solubility ([1]; organic solvent or mixture, solvent Tetrahydrofuran) was 90 µg/mL, the solubility ([1]; solvent Purified water) was 7400 µg/mL and the “hygroscopicity of the sample” value ([2]; DVS, 0% RH to 80% RH) was “slight hygroscopicity”. For the same compound, the “weight gain by hygroscopicity” value ([2]; DVS, from 0% RH to 80% RH, 25° C.) was “about 1.036%”, the “crystal form before and after the DVS test” value ([2]; XRPD before and after DVS) was “remained unchanged” and the “Moisture (KF, w/w %)” value ([3]; 3 months) was 5.7 w/w %. For the same compound, the “Related substances (w/w %): Total impurities” value (“Related substances (w/w %)” for short) ([3]; 3 months) was “not detected”, the “Chiral purity (%)” value ([3]; 3 months) was 99.8% and the “Content (HPLC, w/w %)” value ([3]; 3 months) was 100.8 w/w %. For the same compound, the “Moisture (KF, w/w %)” value ([3]; 6 months) was 6.0 w/w %, the “Related substances (w/w %)” value ([3]; 6 months) was “not detected” and the “Chiral purity (%)” value ([3]; 6 months) was 99.8%. For the same compound, the “Content (HPLC, w/w %)” value ([3]; 6 months) was 100.3 w/w %, the “Moisture (KF, w/w %)” value ([3]; 9 months) was 6.3 w/w % and the “Related substances (w/w %)” value ([3]; 9 months) was “not detected”. The “Chiral purity (%)” value ([3]; 9 months) was 99.8%, the “Content (HPLC, w/w %)” value ([3]; 9 months) was 100.5 w/w % and the “Moisture (KF, w/w %)” value ([3]; 12 months) was 6.2 w/w %. The “Related substances (w/w %)” value ([3]; 12 months) was “not detected”, the “Chiral purity (%)” value ([3]; 12 months) was 99.8% and the “Content (HPLC, w/w %)” value ([3]; 12 months) was 100.0 w/w %. The “Moisture (KF, w/w %)” value ([3]; Initial) was 5.9 w/w %, the “Related substances (w/w %)” value ([3]; Initial) was “not detected” and the “Chiral purity (%)” value ([3]; Initial) was 99.8%. For the same compound, the “Content (HPLC, w/w %)” value ([3]; Initial) was 100.3 w/w %, the long-term stability ([3]; 25° C./60% RH, double-layer polyethylene bag) was “no significant change in the detection results” and the “Moisture (KF, w/w %)” value ([4]; 1 months) was 5.8 w/w %. The “Related substances (w/w %)” value ([4]; 1 months) was “not detected”, the “Chiral purity (%)” value ([4]; 1 months) was 99.8% and the “Content (HPLC, w/w %)” value ([4]; 1 months) was 100.4 w/w %. The “Moisture (KF, w/w %)” value ([4]; 2 months) was 5.7 w/w %, the “Related substances (w/w %)” value ([4]; 2 months) was “not detected” and the “Chiral purity (%)” value ([4]; 2 months) was 99.8%. For the same compound, the “Content (HPLC, w/w %)” value ([4]; 2 months) was 99.6 w/w %, the “Moisture (KF, w/w %)” value ([4]; 3 months) was 5.7 w/w % and the “Related substances (w/w %)” value ([4]; 3 months) was “not detected”. For the same compound, the “Chiral purity (%)” value ([4]; 3 months) was 99.8%, the “Content (HPLC, w/w %)” value ([4]; 3 months) was 100.4 w/w % and the “Moisture (KF, w/w %)” value ([4]; 6 months) was 5.8 w/w %. For the same compound, the “Related substances (w/w %)” value ([4]; 6 months) was “not detected”, the “Chiral purity (%)” value ([4]; 6 months) was 99.8% and the “Content (HPLC, w/w %)” value ([4]; 6 months) was 100.1 w/w %. For the same compound, the “Moisture (KF, w/w %)” value ([4]; Initial) was 5.9 w/w %, the “Related substances (w/w %)” value ([4]; Initial) was “not detected” and the “Chiral purity (%)” value ([4]; Initial) was 99.8%. For the same compound, the “Content (HPLC, w/w %)” value ([4]; Initial) was 100.3 w/w %, the accelerated stability ([4]; 40° C./75% RH, double-layer polyethylene bag) was “no significant change in the detection results” and the “crystal form stability (XRPD pattern)” value ([5]; 60° C.) was “stable”. The “crystal form stability (XRPD pattern)” value ([5]; 60° C./75% RH) was “stable”, the “impurity produced due to degradation” value ([5]; solid left at 60° C. for 15 days) was “no significant impurity to produce due to degradation” and the “impurity produced due to degradation” value ([5]; solid left at 60° C./75% RH for 15 days) was “no significant impurity to produce due to degradation”. For the same compound, the bioavailability [6] was greater than 70%.
